{"source": "patent US20120121591A1", "about": "(priority 2009, published 2012)", "type_in_all_cases": "cell-based", "key": {"[1]": {"target": "hKv1.3 (Homo sapiens, UniProt P22001)", "sequence (P22001 whole entry)": "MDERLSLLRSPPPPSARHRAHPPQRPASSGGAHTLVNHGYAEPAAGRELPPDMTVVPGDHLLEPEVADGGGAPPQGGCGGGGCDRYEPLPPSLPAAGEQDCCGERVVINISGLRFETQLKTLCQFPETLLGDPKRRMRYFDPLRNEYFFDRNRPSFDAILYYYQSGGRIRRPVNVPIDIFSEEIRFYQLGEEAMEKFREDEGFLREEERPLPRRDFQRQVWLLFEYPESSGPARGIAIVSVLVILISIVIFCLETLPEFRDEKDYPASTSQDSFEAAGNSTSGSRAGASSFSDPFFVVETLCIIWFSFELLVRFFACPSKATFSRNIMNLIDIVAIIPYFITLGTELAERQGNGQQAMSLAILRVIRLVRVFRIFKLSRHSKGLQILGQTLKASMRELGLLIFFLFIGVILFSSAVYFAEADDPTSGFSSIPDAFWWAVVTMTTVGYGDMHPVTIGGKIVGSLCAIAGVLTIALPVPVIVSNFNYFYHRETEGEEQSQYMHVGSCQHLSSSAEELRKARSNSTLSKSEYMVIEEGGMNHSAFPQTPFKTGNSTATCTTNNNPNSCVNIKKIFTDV", "assay": "cell-based", "details": "Kv1.3 (IWQ) IC50 (nM, Avg)"}, "[2]": {"system": "IL-2 secretion from T cells in human whole blood", "details": "read-out: WB (IL-2) IC50 (nM, Avg)"}, "[3]": {"system": "IFN-g secretion from T cells in human whole blood"}, "[4]": {"details": "read-out: WB (IFNg) IC50 (nM, Avg)"}, "[5]": {"details": "read-out: WB (IFNg) IC5- (nM, Avg)"}}, "note": "Read-outs that look alike come from different tables or passages of the source. Positions of bridges follow the written chain, without caps; N, C: chain ends. Residues, ends and D or L forms follow the SMILES beside them."}
{"smiles": "CCCC[C@@H]1NC(=O)[C@H](CO)NC(=O)[C@H](Cc2c[nH]cn2)NC(=O)[C@H](CCCCN)NC(=O)[C@@H]2CSSC[C@@H]3NC(=O)[C@H]([C@@H](C)O)NC(=O)[C@H](CCCCN)NC(=O)[C@H](CCCNC(=N)N)NC(=O)[C@H](CSSC[C@H](NC(=O)[C@H](CCCNC(=N)N)NC(=O)[C@H](CO)NC(=O)[C@H](CCCCN)NC(=O)[C@@H]4CCCN4C(=O)[C@H]([C@@H](C)CC)NC(=O)[C@H]([C@@H](C)O)NC(=O)[C@H](CC(=O)O)NC(=O)[C@H]([C@@H](C)CC)NC(=O)[C@@H](NC(=O)[C@H](CO)NC(=O)[C@@H](N)CCCNC(=N)N)CSSC[C@@H](C(N)=O)NC(=O)[C@H]([C@@H](C)O)NC(=O)CNC3=O)C(=O)N[C@@H]([C@@H](C)O)C(=O)N[C@@H](C)C(=O)N[C@@H](Cc3ccccc3)C(=O)N[C@@H](CC(N)=O)C(=O)N2)NC(=O)[C@H](Cc2ccccc2)NC(=O)[C@H](CO)NC(=O)[C@H](CC(C)C)NC(=O)[C@H](CCCNC(=N)N)NC(=O)[C@H](Cc2ccc(O)cc2)NC(=O)[C@H](CCCCN)NC1=O", "note": "[[Asn16,Nle21]ShK-amide]", "values": [{"measurement": "IC50", "setting": "[1]", "value": 0.171, "unit": "nM"}, {"measurement": "IC50", "setting": "[2]", "value": 0.689, "unit": "nM"}, {"measurement": "IC50", "setting": "[3]; [4]", "value": 1.07, "unit": "nM"}]}
{"smiles": "CC[C@H](C)[C@@H]1NC(=O)[C@@H](NC(=O)[C@H](CO)NC(=O)[C@@H](N)CCCNC(=N)N)CSSC[C@@H](C(=O)O)NC(=O)[C@H]([C@@H](C)O)NC(=O)CNC(=O)[C@@H]2CSSC[C@@H]3NC(=O)[C@H](CCN)NC(=O)[C@H](Cc4ccccc4)NC(=O)[C@H](C)NC(=O)[C@H]([C@@H](C)O)NC(=O)[C@H](CSSC[C@H](NC(=O)[C@H](Cc4ccccc4)NC(=O)[C@H](CO)NC(=O)[C@H](CC(C)C)NC(=O)[C@H](CCCNC(=N)N)NC(=O)[C@H](Cc4ccc(O)cc4)NC(=O)[C@H](CCCCN)NC(=O)[C@H](CCSC)NC(=O)[C@H](CO)NC(=O)[C@H](Cc4c[nH]cn4)NC(=O)[C@H](CCCCN)NC3=O)C(=O)N[C@@H](CCCNC(=N)N)C(=O)N[C@@H](CCCCN)C(=O)N[C@@H]([C@@H](C)O)C(=O)N2)NC(=O)[C@H](CCCNC(=N)N)NC(=O)[C@H](CO)NC(=O)[C@H](CCCCN)NC(=O)[C@@H]2CCCN2C(=O)[C@H]([C@@H](C)CC)NC(=O)[C@H]([C@@H](C)O)NC(=O)[C@H](CC(=O)O)NC1=O", "note": "[[Dab16]ShK]", "values": [{"measurement": "IC50", "setting": "[1]", "value": 0.082, "unit": "nM"}, {"measurement": "IC50", "setting": "[2]", "value": 0.086, "unit": "nM"}, {"measurement": "IC50", "setting": "[3]; [4]", "value": 0.223, "unit": "nM"}]}
{"smiles": "CC[C@H](C)[C@@H]1NC(=O)[C@@H](NC(=O)[C@H](CO)NC(=O)[C@@H](N)CCC(=O)O)CSSC[C@@H](C(=O)O)NC(=O)[C@H]([C@@H](C)O)NC(=O)CNC(=O)[C@@H]2CSSC[C@@H]3NC(=O)[C@H](CCC(N)=O)NC(=O)[C@H](Cc4ccccc4)NC(=O)[C@H](C)NC(=O)[C@H]([C@@H](C)O)NC(=O)[C@H](CSSC[C@H](NC(=O)[C@H](Cc4ccccc4)NC(=O)[C@H](CO)NC(=O)[C@H](CC(C)C)NC(=O)[C@H](CCCNC(=N)N)NC(=O)[C@H](Cc4ccc(O)cc4)NC(=O)[C@H](CCCCN)NC(=O)[C@H](CCSC)NC(=O)[C@H](CO)NC(=O)[C@H](Cc4c[nH]cn4)NC(=O)[C@H](CCCCN)NC3=O)C(=O)N[C@@H](CCCNC(=N)N)C(=O)N[C@@H](CCCCN)C(=O)N[C@@H]([C@@H](C)O)C(=O)N2)NC(=O)[C@H](CCCNC(=N)N)NC(=O)[C@H](CO)NC(=O)[C@H](CCCCN)NC(=O)[C@@H]2CCCN2C(=O)[C@H]([C@@H](C)CC)NC(=O)[C@H]([C@@H](C)O)NC(=O)[C@H](CC(=O)O)NC1=O", "note": "[[Glu1]ShK]", "values": [{"measurement": "IC50", "setting": "[1]", "value": 0.144, "unit": "nM"}, {"measurement": "IC50", "setting": "[2]", "value": 0.213, "unit": "nM"}, {"measurement": "IC50", "setting": "[3]; [5]", "value": 0.249, "unit": "nM"}]}
{"smiles": "CC[C@H](C)[C@@H]1NC(=O)[C@@H](NC(=O)[C@H](CCC(=O)O)NC(=O)[C@@H](N)CCCNC(=N)N)CSSC[C@@H](C(=O)O)NC(=O)[C@H]([C@@H](C)O)NC(=O)CNC(=O)[C@@H]2CSSC[C@@H]3NC(=O)[C@H](CCC(N)=O)NC(=O)[C@H](Cc4ccccc4)NC(=O)[C@H](C)NC(=O)[C@H]([C@@H](C)O)NC(=O)[C@H](CSSC[C@H](NC(=O)[C@H](Cc4ccccc4)NC(=O)[C@H](CO)NC(=O)[C@H](CC(C)C)NC(=O)[C@H](CCCNC(=N)N)NC(=O)[C@H](Cc4ccc(O)cc4)NC(=O)[C@H](CCCCN)NC(=O)[C@H](CCSC)NC(=O)[C@H](CO)NC(=O)[C@H](Cc4c[nH]cn4)NC(=O)[C@H](CCCCN)NC3=O)C(=O)N[C@@H](CCCNC(=N)N)C(=O)N[C@@H](CCCCN)C(=O)N[C@@H]([C@@H](C)O)C(=O)N2)NC(=O)[C@H](CCCNC(=N)N)NC(=O)[C@H](CO)NC(=O)[C@H](CCCCN)NC(=O)[C@@H]2CCCN2C(=O)[C@H]([C@@H](C)CC)NC(=O)[C@H]([C@@H](C)O)NC(=O)[C@H](CC(=O)O)NC1=O", "note": "[[Glu2]ShK]", "values": [{"measurement": "IC50", "setting": "[1]", "value": 0.111, "unit": "nM"}, {"measurement": "IC50", "setting": "[2]", "value": 0.029, "unit": "nM"}, {"measurement": "IC50", "setting": "[3]; [5]", "value": 0.039, "unit": "nM"}]}
{"smiles": "CC[C@H](C)[C@@H]1NC(=O)[C@H]([C@@H](C)O)NC(=O)[C@H](CC(=O)O)NC(=O)[C@H](CCC(=O)O)NC(=O)[C@@H](NC(=O)[C@H](CO)NC(=O)[C@@H](N)CCCNC(=N)N)CSSC[C@@H](C(N)=O)NC(=O)[C@H]([C@@H](C)O)NC(=O)CNC(=O)[C@@H]2CSSC[C@@H]3NC(=O)[C@H](CCCCN)NC(=O)[C@H](Cc4ccccc4)NC(=O)[C@H](C)NC(=O)[C@H]([C@@H](C)O)NC(=O)[C@H](CSSC[C@H](NC(=O)[C@H](Cc4ccccc4)NC(=O)[C@H](CO)NC(=O)[C@H](CC(C)C)NC(=O)[C@H](CCCNC(=N)N)NC(=O)[C@H](Cc4ccc(O)cc4)NC(=O)[C@H](CCCCN)NC(=O)[C@H](CCSC)NC(=O)[C@H](CO)NC(=O)[C@H](Cc4c[nH]cn4)NC(=O)[C@H](CCCNC(=N)N)NC3=O)C(=O)N[C@@H](CCCCN)C(=O)N[C@@H](CCCNC(=N)N)C(=O)N[C@@H]([C@@H](C)O)C(=O)N2)NC(=O)[C@H](CCCNC(=N)N)NC(=O)[C@H](CCC(=O)O)NC(=O)[C@H](CCC(=O)O)NC(=O)[C@@H]2CCCN2C1=O", "note": "[[Glu4,9,10; Lys16,29;Arg18, 30]ShK-amide] (H-RSCEDTIPEERCTAFKCRHSMKYRLSFCKRTCGTC-NH2; disulfide 3-35, 12-28, 17-32)", "values": [{"measurement": "IC50", "setting": "[1]", "value": 0.059, "unit": "nM"}, {"measurement": "IC50", "setting": "[2]", "value": 0.204, "unit": "nM"}, {"measurement": "IC50", "setting": "[3]; [4]", "value": 0.513, "unit": "nM"}]}
{"smiles": "CC[C@H](C)[C@@H]1NC(=O)[C@H]([C@@H](C)O)NC(=O)[C@H](CC(=O)O)NC(=O)[C@H](CCC(=O)O)NC(=O)[C@@H](NC(=O)[C@H](CO)NC(=O)[C@@H](N)CCCNC(=N)N)CSSC[C@@H](C(N)=O)NC(=O)[C@H]([C@@H](C)O)NC(=O)CNC(=O)[C@@H]2CSSC[C@@H]3NC(=O)[C@H](CCCCN)NC(=O)[C@H](Cc4ccccc4)NC(=O)[C@H](C)NC(=O)[C@H]([C@@H](C)O)NC(=O)[C@H](CSSC[C@H](NC(=O)[C@H](Cc4ccccc4)NC(=O)[C@H](CO)NC(=O)[C@H](CC(C)C)NC(=O)[C@H](CCCNC(=N)N)NC(=O)[C@H](Cc4ccc(O)cc4)NC(=O)[C@H](CCCCN)NC(=O)[C@H](CCSC)NC(=O)[C@H](CO)NC(=O)[C@H](Cc4c[nH]cn4)NC(=O)[C@H](CCCNC(=N)N)NC3=O)C(=O)N[C@@H](CCCCN)C(=O)N[C@@H](CCCNC(=N)N)C(=O)N[C@@H]([C@@H](C)O)C(=O)N2)NC(=O)[C@H](CCCNC(=N)N)NC(=O)[C@H](CO)NC(=O)[C@H](CCC(=O)O)NC(=O)[C@@H]2CCCN2C1=O", "note": "[[Glu4,9;Lys16,29;Arg18,30]ShK-amide] (H-RSCEDTIPESRCTAFKCRHSMKYRLSFCKRTCGTC-NH2; disulfide 3-35, 12-28, 17-32)", "values": [{"measurement": "IC50", "setting": "[1]", "value": 0.062, "unit": "nM"}, {"measurement": "IC50", "setting": "[2]", "value": 0.151, "unit": "nM"}, {"measurement": "IC50", "setting": "[3]; [4]", "value": 0.345, "unit": "nM"}]}
{"smiles": "CC[C@H](C)[C@@H]1NC(=O)[C@H]([C@@H](C)O)NC(=O)[C@H](CC(=O)O)NC(=O)[C@H](CCC(=O)O)NC(=O)[C@@H](NC(=O)[C@H](CO)NC(=O)[C@@H](N)CCCNC(=N)N)CSSC[C@@H](C(N)=O)NC(=O)[C@H]([C@@H](C)O)NC(=O)CNC(=O)[C@@H]2CSSC[C@@H]3NC(=O)[C@H](CCCCN)NC(=O)[C@H](Cc4ccccc4)NC(=O)[C@H](C)NC(=O)[C@H]([C@@H](C)O)NC(=O)[C@H](CSSC[C@H](NC(=O)[C@H](Cc4ccccc4)NC(=O)[C@H](CO)NC(=O)[C@H](CC(C)C)NC(=O)[C@H](CCCNC(=N)N)NC(=O)[C@H](Cc4ccc(O)cc4)NC(=O)[C@H](CCCCN)NC(=O)[C@H](CCSC)NC(=O)[C@H](CO)NC(=O)[C@H](Cc4c[nH]cn4)NC(=O)[C@H](CCCNC(=N)N)NC3=O)C(=O)N[C@@H](CCCCN)C(=O)N[C@@H](CCCNC(=N)N)C(=O)N[C@@H]([C@@H](C)O)C(=O)N2)NC(=O)[C@H](CCCNC(=N)N)NC(=O)[C@H](CCC(=O)O)NC(=O)[C@H](CCCCN)NC(=O)[C@@H]2CCCN2C1=O", "note": "[[Glu4,10; Lys16,29;Arg18,30]ShK-amide] (H-RSCEDTIPKERCTAFKCRHSMKYRLSFCKRTCGTC-NH2; disulfide 3-35, 12-28, 17-32)", "values": [{"measurement": "IC50", "setting": "[1]", "value": 0.064, "unit": "nM"}, {"measurement": "IC50", "setting": "[2]", "value": 0.114, "unit": "nM"}, {"measurement": "IC50", "setting": "[3]; [4]", "value": 0.217, "unit": "nM"}]}
{"smiles": "CCCC[C@@H]1NC(=O)[C@H](CO)NC(=O)[C@H](Cc2c[nH]cn2)NC(=O)[C@H](CCC(=O)O)NC(=O)[C@@H]2CSSC[C@@H]3NC(=O)[C@H]([C@@H](C)O)NC(=O)[C@H](CCCCN)NC(=O)[C@H](CCCNC(=N)N)NC(=O)[C@H](CSSC[C@H](NC(=O)[C@H](CCCNC(=N)N)NC(=O)[C@H](CO)NC(=O)[C@H](CCCCN)NC(=O)[C@@H]4CCCN4C(=O)[C@H]([C@@H](C)CC)NC(=O)[C@H]([C@@H](C)O)NC(=O)[C@H](CC(=O)O)NC(=O)[C@H](CCC(=O)O)NC(=O)[C@@H](NC(=O)[C@H](CO)NC(=O)[C@@H](N)CCCNC(=N)N)CSSC[C@@H](C(N)=O)NC(=O)[C@H]([C@@H](C)O)NC(=O)CNC3=O)C(=O)N[C@@H]([C@@H](C)O)C(=O)N[C@@H](C)C(=O)N[C@@H](Cc3ccccc3)C(=O)N[C@@H](CCCCN)C(=O)N2)NC(=O)[C@H](Cc2ccccc2)NC(=O)[C@H](CO)NC(=O)[C@H](CC(C)C)NC(=O)[C@H](CCCNC(=N)N)NC(=O)[C@H](Cc2ccc(O)cc2)NC(=O)[C@H](CCCCN)NC1=O", "note": "[[Glu4,18, Lys16,Nle21]ShK-amide]", "values": [{"measurement": "IC50", "setting": "[1]", "value": 0.239, "unit": "nM"}, {"measurement": "IC50", "setting": "[2]", "value": 0.603, "unit": "nM"}, {"measurement": "IC50", "setting": "[3]; [4]", "value": 0.934, "unit": "nM"}]}
